This passage reports T/C results from PubChem BioAssay AID256 (DTP/NCI, 2004).

Each structure is given as a SMILES string. “And” between values parts separate entries of the source, which are not always exact repeats. Equal entries are not always repeated. Inconclusive results and toxic doses are left out.

This experiment has as its system CD2F1 mice, L1210 leukemia ip, survival T/C. The experiment in a line: NCI In Vivo Anticancer Drug Screen. Data for tumor model L1210 Leukemia (intraperitoneal) in CD2F1 (CDF1) mice. Particulars: endpoint: mean survival time, higher = longer survival. In a few lines: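 Transplantable tumor in mice; compound-treated vs vehicle-treated groups. Read-out = treated/control ratio of the measured endpoint.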

Setting [1] is: dose: 100.0 mg/kg/injection, schedule: Q04DX003 (ip), vehicle: saline with Tween-80.
[2] abbreviates: dose: 200.0 mg/kg/injection, schedule: Q04DX003 (ip), vehicle: saline with Tween-80.
[3] abbreviates: dose: 400.0 mg/kg/injection, schedule: Q04DX003 (ip), vehicle: saline with Tween-80.
The mark [4] stands for this setting: dose: 100.0 mg/kg/injection, schedule: Q04DX003 (ip), vehicle: saline.
The mark [5] stands for this setting: dose: 200.0 mg/kg/injection, schedule: Q04DX003 (ip), vehicle: saline.
Where [6] appears, read: dose: 6.25 mg/kg/injection, schedule: Q01DX009 (ip), vehicle: saline with Tween-80.
Setting [7] is: dose: 25.0 mg/kg/injection, schedule: Q01DX009 (ip), vehicle: saline with Tween-80.
The mark [8] stands for this setting: dose: 50.0 mg/kg/injection, schedule: Q04DX002 (ip), vehicle: saline with Tween-80.
Setting [9] is: dose: 100.0 mg/kg/injection, schedule: Q04DX002 (ip), vehicle: saline with Tween-80.
[10] abbreviates: dose: 6.25 mg/kg/injection, schedule: Q04DX003 (ip), vehicle: saline with Tween-80.
Setting [11] is: dose: 12.5 mg/kg/injection, schedule: Q04DX003 (ip), vehicle: saline with Tween-80.
The mark [12] stands for this setting: dose: 100.0 mg/kg/injection, schedule: Q01DX009 (ip), vehicle: saline with Tween-80.
[13] abbreviates: dose: 200.0 mg/kg/injection, schedule: Q01DX009 (ip), vehicle: saline with Tween-80.
The mark [14] stands for this setting: dose: 400.0 mg/kg/injection, schedule: Q01DX009 (ip), vehicle: saline with Tween-80.

As for `COC(=O)CC1CCS(=O)(=O)C1` (stereo unspecified), the T/C is 98 % of control under setting [1], 93 % of control under setting [2] and 92 % of control under setting [3].
In the case of `CN(C)CCP(=O)(O)O`, the T/C reads like this: under setting [4], 101 % of control; under setting [5], 98 % of control; (dose: 400.0 mg/kg/injection, schedule: Q04DX003 (ip), vehicle: saline) 98 % of control.
As for `COc1ccc(C2C(C(C)=O)=C(C)NC(C)=C2C(C)=O)cc1`, the T/C runs as follows: under setting [1], 88 % of control; under setting [2], 87 % of control.
For the compound `O=C=NC(c1ccccc1)(c1ccccc1)c1ccccc1`, the T/C is 95 % of control and 99 % of control under setting [1]; 103 % of control and 104 % of control under setting [2]; 97 % of control under setting [3].
Consider `CCOP(=O)(OCC)/C(C#N)=C\c1ccc(N(C)C)cc1`, for which the T/C under setting [1] was 101 % of control, the T/C under setting [2] was 95 % of control and the T/C under setting [3] is 98 % of control.
Take `CC(C)CC(C)OP(=S)(S)OC(C)CC(C)C` (stereo unspecified): the T/C was 95 % of control (dose: 12.5 mg/kg/injection, schedule: Q04DX002 (ip), vehicle: saline); 95 % of control (dose: 25.0 mg/kg/injection, schedule: Q04DX002 (ip), vehicle: saline); 109 % of control (dose: 50.0 mg/kg/injection, schedule: Q04DX002 (ip), vehicle: saline).
`COc1cc(NS(C)(=O)=O)ccc1Nc1c2ccccc2nc2cc(C(F)(F)F)c(N)cc12`: the T/C is, setting by setting: (dose: 200.0 mg/kg/injection, schedule: Q01DX001 (ip), vehicle: Klucel (hydroxypropylcellulose) (HPC)) 154 % of control; (dose: 400.0 mg/kg/injection, schedule: Q01DX001 (ip), vehicle: Klucel (hydroxypropylcellulose) (HPC)) 265 % of control.
Turning to `O=C(OC1COC(OCc2ccccc2)C(OC(=O)c2ccccc2)C1OC(=O)c1ccccc1)c1ccccc1` (stereo unspecified), the T/C under setting [6] was 102 % of control; the T/C (dose: 12.5 mg/kg/injection, schedule: Q01DX009 (ip), vehicle: saline with Tween-80) is 105 % of control; the T/C under setting [7] was 108 % of control.
In the case of `[O-][n+]1ccc(-c2ccccc2)nc1`, the T/C runs as follows: under setting [8], 106 % of control; under setting [9], 103 % of control; (dose: 200.0 mg/kg/injection, schedule: Q04DX002 (ip), vehicle: saline with Tween-80) 117 % of control.
Turning to `CCCCOP(=O)(OCCCC)[O][Pb]([CH2]C)([CH2]C)[CH2]C`, the T/C is 97 % of control under setting [10] and 92 % of control under setting [11].
`CC1=NOC(=O)C1C(C)(C)C1C(=O)ON=C1C` (stereo unspecified): the T/C under setting [12] is 107 % of control, the T/C under setting [13] was 104 % of control and the T/C under setting [14] is 104 % of control.
Take `C/C(=N\O)c1ccccn1`: the T/C runs as follows: (dose: 25.0 mg/kg/injection, schedule: Q01DX009 (ip), vehicle: Klucel (hydroxypropylcellulose) (HPC)) 95 % of control; (dose: 50.0 mg/kg/injection, schedule: Q01DX009 (ip), vehicle: Klucel (hydroxypropylcellulose) (HPC)) 100 % of control; (dose: 100.0 mg/kg/injection, schedule: Q01DX009 (ip), vehicle: Klucel (hydroxypropylcellulose) (HPC)) 90 % of control; (dose: 200.0 mg/kg/injection, schedule: Q01DX009 (ip), vehicle: Klucel (hydroxypropylcellulose) (HPC)) 95 % of control; (dose: 400.0 mg/kg/injection, schedule: Q01DX009 (ip), vehicle: Klucel (hydroxypropylcellulose) (HPC)) 105 % of control.
Consider `COc1ccc2c(c1OC(C)=O)-c1cc(OC(C)=O)cc3c1C(C2)NCC3` (stereo unspecified), for which the T/C is 96 % of control (dose: 3.13 mg/kg/injection, schedule: Q04DX003 (ip), vehicle: saline with Tween-80); 94 % of control under setting [10]; 94 % of control under setting [11]; 94 % of control (dose: 25.0 mg/kg/injection, schedule: Q04DX003 (ip), vehicle: saline with Tween-80).
Regarding `COC1C(C)OC(OC2CC(C)(O)Cc3cc4c(c(O)c32)C(=O)c2c(O)cc3c(c2C4=O)OC2OC3(C)C(O)C(N(C)C)C2O)C(OC)C1(C)OC` (stereo unspecified), the T/C is, setting by setting: (dose: 0.6 mg/kg/injection, schedule: Q01DX009 (ip), vehicle: other) 115 % of control; (dose: 1.25 mg/kg/injection, schedule: Q04DX003 (ip), vehicle: other) 101 % of control; (dose: 2.5 mg/kg/injection, schedule: Q04DX003 (ip), vehicle: other) 109 % of control; (dose: 5.0 mg/kg/injection, schedule: Q04DX003 (ip), vehicle: other) 112 % of control; (dose: 10.0 mg/kg/injection, schedule: Q04DX003 (ip), vehicle: other) 109 % of control; (dose: 20.0 mg/kg/injection, schedule: Q04DX003 (ip), vehicle: other) 102 % of control.
Turning to `CS(=O)(=O)c1ncc[nH]1`, the T/C runs as follows: under setting [1], 100 % of control; under setting [2], 109 % of control; under setting [3], 109 % of control.
Turning to `CC1(C)N=C(N)N=C(N)N1c1ccc(Cl)c(Cl)c1`, the T/C is 102 % of control (dose: 25.0 mg/kg/injection, schedule: Q04DX002 (ip), vehicle: saline with Tween-80); 98 % of control under setting [8]; 96 % of control (dose: 100.0 mg/kg/injection, schedule: Q01DX001 (ip), vehicle: Klucel (hydroxypropylcellulose) (HPC)); 90 % of control under setting [9].
Turning to `O=C(NCCCl)Nc1cc(Cl)cc(Cl)c1`, the T/C under setting [7] is 97 % of control; the T/C (dose: 50.0 mg/kg/injection, schedule: Q01DX009 (ip), vehicle: saline with Tween-80) is 100 % of control; the T/C under setting [12] is 88 % of control and 96 % of control.
As for `CCCCN1C(=O)C=CC1=O`, the T/C by setting is: (dose: 0.78 mg/kg/injection, schedule: Q01DX009 (ip), vehicle: saline with Tween-80) 94 % of control; (dose: 1.56 mg/kg/injection, schedule: Q01DX009 (ip), vehicle: saline with Tween-80) 105 % of control; (dose: 3.12 mg/kg/injection, schedule: Q01DX009 (ip), vehicle: saline with Tween-80) 91 % of control.
On to `Nc1nc(N)c2nc(-c3ccc(Cl)c(Cl)c3)c(N)nc2n1`, for which the T/C (dose: 12.5 mg/kg/injection, schedule: Q01DX009 (ip), vehicle: water) was 97 % of control; the T/C (dose: 25.0 mg/kg/injection, schedule: Q01DX009 (ip), vehicle: water) is 97 % of control; the T/C (dose: 50.0 mg/kg/injection, schedule: Q01DX009 (ip), vehicle: water) is 108 % of control; the T/C (dose: 100.0 mg/kg/injection, schedule: Q01DX009 (ip), vehicle: water) is 93 % of control.
Regarding `Cc1cc(C(O)CNC(C)CCn2cnc3c2c(=O)n(C)c(=O)n3C)ccc1O` (stereo unspecified), the T/C runs as follows: (dose: 12.5 mg/kg/injection, schedule: Q01DX005 (ip), vehicle: water) 93 % of control; (dose: 25.0 mg/kg/injection, schedule: Q01DX005 (ip), vehicle: water) 96 % of control; (dose: 50.0 mg/kg/injection, schedule: Q01DX005 (ip), vehicle: water) 96 % of control; (dose: 100.0 mg/kg/injection, schedule: Q01DX005 (ip), vehicle: water) 100 % of control; (dose: 200.0 mg/kg/injection, schedule: Q01DX005 (ip), vehicle: water) 93 % of control.
Turning to `CN(C)C(Cl)(Cl)Nc1ccc(Cl)cc1`, the T/C is, setting by setting: under setting [12], 91 % of control; under setting [13], 107 % of control; under setting [14], 113 % of control.
With `N=C(N)c1ccc(N)cc1`, the T/C was 103 % of control under setting [4] and 101 % of control under setting [5].
For the compound `OCC1OCOC2COCOC12` (stereo unspecified), the T/C was 95 % of control under setting [1], 98 % of control under setting [2] and 101 % of control under setting [3].
With `O=C[N]([Hg][Cl])c1ccccc1`, under setting [6], the T/C is 86 % of control.
As for `COc1ccc(COc2ccc([N+](=O)[O-])cc2)cc1`, the T/C under setting [9] is 87 % of control and the T/C (dose: 400.0 mg/kg/injection, schedule: Q04DX002 (ip), vehicle: saline with Tween-80) was 87 % of control.
In the case of `CC(O)C1CCC2C3CCC4CC(O)CCC4(C)C3CCC12C` (stereo unspecified), the T/C under setting [1] was 95 % of control, the T/C under setting [2] is 96 % of control and the T/C under setting [3] is 101 % of control.
